Assay results from patent publication US6737383B1, “Herbicidal oxadiazolidines” (priority 1999, dated 2004).

Key:
duck salad = experiment: Test B flood test duck salad; assay type: in vivo, Heteranthera limosa
Outline: (§1)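 Each value is a visual injury score relative to controls, with 10 meaning complete control and 0 no effect. Evaluation took place twelve to sixteen days after the 2-leaf-stage plants were treated and kept in the greenhouse.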

velvetleaf = experiment: Test B pre/postemergence velvetleaf; assay type: in vivo, Abutilon theophrasti
Outline: (§2)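 Response is a visual 0-to-10 score relative to untreated plants, where 0 means no effect and 10 means complete control, taken twelve to sixteen days after application. Treatments went onto soil at planting and onto foliage of 1- to 4-leaf plants, using a surfactant-containing non-phytotoxic solvent.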

wheat = experiment: Test B pre/postemergence wheat; assay type: in vivo, Triticum aestivum
Outline: as §2

smallflower flatsedge = experiment: Test B flood test smallflower flatsedge; assay type: in vivo, Cyperus difformis
Outline: as §1

rice = experiment: Test B flood test rice; assay type: in vivo, Oryza sativa
Outline: as §1

blackgrass = experiment: Test B pre/postemergence blackgrass; assay type: in vivo, Alopecurus myosuroides
Outline: as §2

sugar beet = experiment: Test B pre/postemergence sugar beet; assay type: in vivo, Beta vulgaris
Outline: as §2

bedstraw = experiment: Test B pre/postemergence bedstraw; assay type: in vivo, Galium aparine
Outline: as §2

crabgrass = experiment: Test B pre/postemergence crabgrass; assay type: in vivo, Digitaria sanguinalis
Outline: as §2

rape = experiment: Test B pre/postemergence rape; assay type: in vivo, Brassica napus
Outline: as §2

surinam grass = experiment: Test B pre/postemergence surinam grass; assay type: in vivo, Brachiaria decumbens
Outline: as §2

corn = experiment: Test B pre/postemergence corn; assay type: in vivo, Zea mays
Outline: as §2

soybean = experiment: Test B pre/postemergence soybean; assay type: in vivo, Glycine max
Outline: as §2

bamyardgrass = experiment: Test B flood test barnyardgrass; assay type: in vivo, Echinochloa crus-galli
Outline: as §1

purple nutsedge = experiment: Test B pre/postemergence purple nutsedge; assay type: in vivo, Cyperus rotundus
Outline: as §2

wild oat = experiment: Test B pre/postemergence wild oat; assay type: in vivo, Avena fatua
Outline: as §2

cocklebur = experiment: Test B pre/postemergence cocklebur; assay type: in vivo, Xanthium strumarium
Outline: as §2

[1] = Postemergence, Rate 62 g/ha, scale 0 to 10, 0 is no effect, 10 is complete control
[2] = Rate 125 g/ha, Postemergence section (flood test species), scale 0 to 10, 0 no effect, 10 complete control
[3] = Rate 500 g/ha, listed under Postemergence (flood test species), scale 0 to 10, 0 no effect, 10 complete control
[4] = flood test, listed under Postemergence, Rate 250 g/ha, scale 0 to 10, 0 no effect, 10 complete control
[5] = Postemergence, Rate 250 g/ha, scale 0 to 10, 0 no effect, 10 complete control
[6] = Preemergence, Rate 62 g/ha, scale 0 to 10 (0 no effect, 10 complete control)
[7] = Preemergence, Rate 125 g/ha, scale 0 to 10 (0 no effect, 10 complete control)
[8] = Preemergence, Rate 250 g/ha, scale of 0 to 10 where 0 is no effect and 10 is complete control
[9] = Preemergence, Rate 500 g/ha, scale 0 (no effect) to 10 (complete control)
[10] = Rate 125 g/ha, Postemergence, scale 0 to 10, 0 no effect, 10 complete control
[11] = Rate 500 g/ha, Postemergence, scale 0 to 10, 0 no effect, 10 complete control

Compound: Cc1ccccc1-n1c(=O)on(C(=O)N(c2cc(F)ccc2F)C(C)C)c1=O [Compound 68]
- Ducksalad plant response rating (duck salad; [1]): 0
- Ducksalad plant response rating (duck salad; [2]): 0
- Ducksalad plant response rating (duck salad; [3]): 0
- Ducksalad plant response rating (duck salad; [4]): 0
- Velvetleaf plant response rating (velvetleaf; [1]): 0
- Velvetleaf plant response rating (velvetleaf; [5]): 2
- Velvetleaf plant response rating (velvetleaf; [6]): 0
- Plant response rating, Velvetleaf (velvetleaf; [7]): 0
- Plant response rating, Velvetleaf (velvetleaf; [8]): 0
- Velvetleaf plant response rating (velvetleaf; [9]): 0
- Velvetleaf plant response rating (velvetleaf; [10]): 0
- Velvetleaf plant response rating (velvetleaf; [11]): 3
- Wheat plant response rating (wheat; [1]): 0
- Wheat plant response rating (wheat; [5]): 0
- Wheat plant response rating (wheat; [6]): 0
- Plant response rating, Wheat (wheat; [7]): 0
- Plant response rating, Wheat (wheat; [8]): 0
- Wheat plant response rating (wheat; [9]): 0
- Wheat plant response rating (wheat; [10]): 0
- Wheat plant response rating (wheat; [11]): 0
- S. Flatsedge plant response rating (smallflower flatsedge; [1]): 0
- S. Flatsedge plant response rating (smallflower flatsedge; [2]): 0
- S. Flatsedge plant response rating (smallflower flatsedge; [3]): 0
- S. Flatsedge plant response rating (smallflower flatsedge; [4]): 0
- Rice plant response rating (rice; [1]): 0
- Rice plant response rating (rice; [2]): 0
- Rice plant response rating (rice; [3]): 0
- Rice plant response rating (rice; [4]): 0
- Blackgrass plant response rating (blackgrass; [1]): 0
- Blackgrass plant response rating (blackgrass; [5]): 2
- Blackgrass plant response rating (blackgrass; [6]): 0
- Plant response rating, Blackgrass (blackgrass; [7]): 2
- Plant response rating, Blackgrass (blackgrass; [8]): 2
- Blackgrass plant response rating (blackgrass; [9]): 4
- Blackgrass plant response rating (blackgrass; [10]): 0
- Blackgrass plant response rating (blackgrass; [11]): 2
- Sugarbeets plant response rating (sugar beet; [1]): 0
- Sugarbeets plant response rating (sugar beet; [5]): 0
- Sugarbeets plant response rating (sugar beet; [6]): 0
- Plant response rating, Sugarbeets (sugar beet; [7]): 0
- Plant response rating, Sugarbeets (sugar beet; [8]): 0
- Sugarbeets plant response rating (sugar beet; [9]): 0
- Sugarbeets plant response rating (sugar beet; [10]): 0
- Sugarbeets plant response rating (sugar beet; [11]): 3
- Bedstraw plant response rating (bedstraw; [1]): 4
- Bedstraw plant response rating (bedstraw; [5]): 7
- Bedstraw plant response rating (bedstraw; [6]): 0
- Plant response rating, Bedstraw (bedstraw; [7]): 0
- Plant response rating, Bedstraw (bedstraw; [8]): 4
- Bedstraw plant response rating (bedstraw; [9]): 4
- Bedstraw plant response rating (bedstraw; [10]): 7
- Crabgrass plant response rating (crabgrass; [1]): 0
- Crabgrass plant response rating (crabgrass; [5]): 0
- Crabgrass plant response rating (crabgrass; [6]): 2
- Plant response rating, Crabgrass (crabgrass; [7]): 3
- Plant response rating, Crabgrass (crabgrass; [8]): 10
- Crabgrass plant response rating (crabgrass; [9]): 10
- Crabgrass plant response rating (crabgrass; [10]): 0
- Crabgrass plant response rating (crabgrass; [11]): 0
- Rape plant response rating (rape; [1]): 0
- Rape plant response rating (rape; [5]): 0
- Rape plant response rating (rape; [6]): 0
- Plant response rating, Rape (rape; [7]): 0
- Plant response rating, Rape (rape; [8]): 2
- Rape plant response rating (rape; [9]): 6
- Rape plant response rating (rape; [10]): 0
- Rape plant response rating (rape; [11]): 0
- B. signalgrass plant response rating (surinam grass; [1]): 0
- B. signalgrass plant response rating (surinam grass; [5]): 0
- B. signalgrass plant response rating (surinam grass; [6]): 0
- Plant response rating, B. signalgrass (surinam grass; [7]): 3
- Plant response rating, B. signalgrass (surinam grass; [8]): 4
- B. signalgrass plant response rating (surinam grass; [9]): 8
- B. signalgrass plant response rating (surinam grass; [10]): 0
- B. signalgrass plant response rating (surinam grass; Rate 500 g/ha, Postemergence, scale of 0 to 10 where 0 is no effect and 10 is complete control): 0
- Corn plant response rating (corn; [1]): 0
- Corn plant response rating (corn; [5]): 0
- Corn plant response rating (corn; [6]): 0
- Plant response rating, Corn (corn; [7]): 0
- Plant response rating, Corn (corn; [8]): 0
- Corn plant response rating (corn; [9]): 0
- Corn plant response rating (corn; [10]): 0
- Corn plant response rating (corn; [11]): 0
- Soybean plant response rating (soybean; [1]): 1
- Soybean plant response rating (soybean; [5]): 3
- Soybean plant response rating (soybean; [6]): 0
- Plant response rating, Soybean (soybean; [7]): 0
- Plant response rating, Soybean (soybean; [8]): 0
- Soybean plant response rating (soybean; [9]): 0
- Soybean plant response rating (soybean; [10]): 2
- Soybean plant response rating (soybean; [11]): 3
- Barnyardgrass plant response rating (bamyardgrass; [1]): 0
- Barnyardgrass plant response rating (bamyardgrass; [2]): 0
- Barnyardgrass plant response rating (bamyardgrass; [3]): 0
- Barnyardgrass plant response rating (bamyardgrass; [4]): 0
- Nutsedge plant response rating (purple nutsedge; [1]): 0
- Nutsedge plant response rating (purple nutsedge; [5]): 0
- Plant response rating, Nutsedge (purple nutsedge; [7]): 0
- Plant response rating, Nutsedge (purple nutsedge; [8]): 10
- Nutsedge plant response rating (purple nutsedge; [9]): 10
- Nutsedge plant response rating (purple nutsedge; [10]): 0
- Nutsedge plant response rating (purple nutsedge; [11]): 0
- Wild oats plant response rating (wild oat; [1]): 0
- Wild oats plant response rating (wild oat; [5]): 0
- Wild oats plant response rating (wild oat; [6]): 0
- Plant response rating, Wild oats (wild oat; [7]): 0
- Plant response rating, Wild oats (wild oat; [8]): 2
- Wild oats plant response rating (wild oat; [9]): 2
- Wild oats plant response rating (wild oat; [10]): 0
- Wild oats plant response rating (wild oat; [11]): 0
- Cocklebur plant response rating (cocklebur; [1]): 0
- Cocklebur plant response rating (cocklebur; [5]): 2
- Cocklebur plant response rating (cocklebur; [6]): 0
- Plant response rating, Cocklebur (cocklebur; [7]): 0
- Plant response rating, Cocklebur (cocklebur; [8]): 0
- Cocklebur plant response rating (cocklebur; [9]): 0
- Cocklebur plant response rating (cocklebur; [10]): 0
- Cocklebur plant response rating (cocklebur; [11]): 2
